Assay results reported in patent US20200371122A1, “BIOMARKER FOR SENESCENT CELLS” (Buck Institute for Research on Aging, priority 2017, published 2020).

Experiments:
IMR-90 fibroblasts = assay type: cell-based, human
Protocol: (§1) Human fetal lung fibroblasts (IMR-90) were cultured in Dulbecco's modified eagle medium (DMEM) supplemented with 10% FBS and penicillin/streptomycin. LL 29 (AnHa) cells were obtained from the ATCC and growth to confluence using the ATCC protocol, but were subcultured as described for IMR-90 before initiation of all experiments. Quiescence was induced by replacing culture media with media containing 0.2% FBS. MCF-7 and MDA-MB-231 breast cancer cells were cultured in RPMI supplemented with 10% FBS and penicillin/streptomycin. All cells were cultured at 3% O2, and used between 25 and 40 population doublings. All cells were mycoplasma free.
RNA was extracted from cells or tissues using commercially available kits (Isolate II—Bioline for cells; Direct-zol—Zymo for tissues) according to the manufacturer's instructions. cDNA synthesis was performed using a High Capacity cDNA Reverse Transcription Kit (Thermo Fisher) according to the manufacturer's instructions. Quantitative PCR was performed on a LightCycler 480 II (Roche) using primers and probes designed for the Universal Probe Library. Primers and probes used for human transcripts were ACTB: 5′-CCAACCGCGAGAAGATGA (SEQ ID NO:1), 5′-TCCATCACGATGCCAGTG (SEQ ID NO:2), Probe #64; TUBA: 5′-cttcgtctccgccatcag (SEQ ID NO:3), 5′-ttgccaatctggacacca (SEQ ID NO:4), Probe #58; ALOX5: 5′-[…] (SEQ ID NO:5), 5′-[…] (SEQ ID NO:6), Probe #64; ALOX5AP: 5′-ggtctgcggggctacttt (SEQ ID NO:7), 5′-[…] (SEQ ID NO:8), Probe #18; ALOX12: 5′-[…] (SEQ ID NO:9), 5′-agccaggtcgtcaggag (SEQ ID NO:10), Probe #32; ALOX15: 5′-[…] (SEQ ID NO:11), 5′-[…] (SEQ ID NO:12), Probe #76; ALOX15B: 5′-[…] (SEQ ID NO:13), 5′-actgggaggcgaagaagg (SEQ ID NO:14), Probe #51; AKR1C1: 5′-catgcctgtcctgggattt (SEQ ID NO:15), 5′-[…] (SEQ ID NO:16), Probe #49; AKR1C2: 5′-ctatgcgcctgcagaggt (SEQ ID NO:17), 5′-[…] (SEQ ID NO:18), Probe #31; AKR1C3: 5′-[…] (SEQ ID NO:19), 5′-[…] (SEQ ID NO:20), Probe #78; CYSLTR2: 5′-[…] (SEQ ID NO:21), 5′-[…] (SEQ ID NO:22), Probe #18; DPEP1: 5′-gacgtcctgaggctggtg (SEQ ID NO:23), 5′-[…] (SEQ ID NO:24), Probe #9 (SEQ ID NO:25), ELOVL2: 5′-[…] (SEQ ID NO:26), 5′-[…] (SEQ ID NO:27), Probe #53; ELOVL4: 5′-catttggcccatggattc (SEQ ID NO:28), 5′-[…] (SEQ ID NO:29), Probe #31; ELOVL5: 5′-cccttccatgcgtccata (SEQ ID NO:30), 5′-[…] (SEQ ID NO:31), Probe #31; EPHX2: 5′-ttctgctggacaccctgaa (SEQ ID NO:32), 5′-[…] (SEQ ID NO:33), Probe #45; GPX4: 5′-ttcccgtgtaaccagttcg (SEQ ID NO:34), 5′-[…] (SEQ ID NO:35), Probe #36; LTA4H: 5′-ctgctctcacggtccagtc (SEQ ID NO:36), 5′-[…] (SEQ ID NO:37), Probe #64; LTBR2: 5′-[…] (SEQ ID NO:38), 5′-[…] (SEQ ID NO:39), Probe #33; LTC4S: 5′-[…] (SEQ ID NO:40), 5′-[…] (SEQ ID NO:41), Probe #18; PTGDS: 5′-[…] (SEQ ID NO:42), 5′-[…] (SEQ ID NO:43), Probe #36; PTGES: 5′-agagatgcctgcccacag (SEQ ID NO:44), 5′-tggccaccacgtacatctt (SEQ ID NO:45), Probe #4; PTGES2: 5′-[…] (SEQ ID NO:46), 5′-[…] (SEQ ID NO:47), Probe #49; PTGES3 (SEQ ID NO:48), 5′-[…] (SEQ ID NO:49), 5′-[…] (SEQ ID NO:50), Probe #48; PTGIS: 5′-[…] (SEQ ID NO:51), 5′-[…] (SEQ ID NO:52), Probe #45; PTGR1: 5′-atgatggggcagcaagtg (SEQ ID NO:53), 5′-cccatcagaaatggagtgc (SEQ ID NO:54), Probe #64; PTGS1: 5′-[…] (SEQ ID NO:55), 5′-gtggtggtccatgttcctg (SEQ ID NO:56), Probe #81; PTGS2: 5′-gatccccagggctcaaac (SEQ ID NO:57), 5′-[…] (SEQ ID NO:58), Probe #61; TBXAS1: 5′-[…] (SEQ ID NO:59), 5′-tgcctcccgtgtgaatct (SEQ ID NO:60), Probe #73; AREG: 5′-[…] (SEQ ID NO:61), 5′-[…] (SEQ ID NO:62), Probe #73; CCL2: 5′-AGTCTCTGCCGCCCTTCT (SEQ ID NO:63), 5′-GTGACTGGGGCATTGATTG (SEQ ID NO:64), Probe #40; CCL27: 5′-[…] (SEQ ID NO:65), 5′-gctgggtggcagtaggaat (SEQ ID NO:66), Probe #18; CXCL1: 5′-[…] (SEQ ID NO:67), 5′-[…] (SEQ ID NO:68), Probe #52; HGF: 5′-[…] (SEQ ID NO:69), 5′-[…]

[1] = test system: IL-6 secretion in senescent cells; assay: IL-6 ELISA on conditioned media of IR-induced senescent cells treated with COX-2/ALOX5 inhibitors; assay type: cell-based, human; details: SEN(IR) IMR-90, inhibitor for 10 days
Protocol: as §1
Senescence was induced by irradiation with 10 Gy of ionizing radiation. Non-senescent controls (proliferating or quiescent) were placed in the irradiator for an identical period of time without turning on the irradiator. Oncogene-induced senescence was induced via lentiviral overexpression of HRAS^V12, as described previously (Wiley et al. (2016) Cell Metab. 23: 303-314).
3×10^4 cells in 12-well plates were treated as indicated in the text, and cultured in 0.5-1 ml serum-free DMEM for 24 hr. CM were collected and clarified at 2,000×g for 10 min. Supernatants were transferred to a tube; cells were trypsinized and counted. CM (2.5 μl) were analyzed by bead-based ELISAs (AlphaLISA, Perkin-Elmer) as instructed by the manufacturer and normalized to cell number.

In the case of `CS(=O)(=O)c1ccc(-c2noc(C(F)(F)F)c2-c2ccccc2)cc1` [CAY-10404], the “number of cells following irradiation” value (IMR-90 fibroblasts; 5 Gy IR, 10 days) is reported as “significantly increased”, the “cell number relative to DMSO-treated SEN(IR) cells” value (IMR-90 fibroblasts; SEN(IR) cells counted for IL-6 ELISA normalization) is reported as “increase in cell number” and the “lowered IL-6 secretion in senescent cells” value [1] is reported as roughly 70%.
